In PubChem BioAssay (NCI):
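Results reflect a 48-hour exposure of cells in 96-well plates to compound at five concentrations. At the TGI there is no net growth.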

Experiments:
Test in all cases: NCI anticancer screen, dose series, 48 h
[1] = system: HOP-62 NSCLC
[2] = system: RPMI-8226 leukemia
[3] = system: LOX IMVI melanoma
[4] = system: A549 NSCLC
[5] = system: HS 578T breast
[6] = system: MALME-3M melanoma
[7] = system: HCC-2998 colon
[8] = system: MCF7 breast
[9] = system: OVCAR-8 ovarian
[10] = system: DU-145 prostate
[11] = system: NCI-H23 lung
[12] = system: SNB-19 CNS
[13] = system: HOP-92 NSCLC
[14] = system: M14 melanoma
[15] = system: CCRF-CEM leukemia
[16] = system: SF-539 CNS
[17] = system: UACC-257 melanoma
[18] = system: SF-268 CNS
[19] = system: SK-OV-3 ovarian
[20] = system: SK-MEL-5 melanoma
[21] = system: T-47D breast
[22] = system: A498 renal
[23] = system: MDA-MB-435
[24] = system: NCI-H226 lung
[25] = system: SK-MEL-28 melanoma
[26] = system: KM12 colon
[27] = system: NCI-H460 lung
[28] = system: HT29 colon
[29] = system: PC-3 prostate
[30] = system: SW-620 colon
[31] = system: NCI/ADR-RES ovarian
[32] = system: HCT-15 colon
[33] = system: MDA-N
[34] = system: SNB-75 CNS
[35] = system: OVCAR-5 ovarian
[36] = system: TK-10 renal
[37] = system: HCT-116 colon
[38] = system: CAKI-1 renal
[39] = system: SK-MEL-2 melanoma
[40] = system: UACC-62 melanoma
[41] = system: EKVX NSCLC
[42] = system: OVCAR-4 ovarian
[43] = system: UO-31 renal
[44] = system: NCI-H522 lung
[45] = system: SF-295 CNS
[46] = system: MDA-MB-231 breast
[47] = system: MOLT-4 leukemia
[48] = system: COLO 205 colon
[49] = system: RXF 393 renal
[50] = system: IGROV1 ovarian
[51] = system: OVCAR-3 ovarian
[52] = system: 786-0 renal
[53] = system: ACHN renal
[54] = system: SN12C renal
[55] = system: U251 CNS
[56] = system: K-562 leukemia
[57] = system: HL-60(TB) leukemia
[58] = system: SR leukemia

SMILES: Cn1cnc(C(=N)[Se])c1N
- TGI [1]: > 23.4 µM
- TGI [2]: 6.95 µM
- TGI [3]: > 100 µM
- TGI [4]: > 100 µM
- TGI [5]: > 26.4 µM
- TGI [6]: 8.89 µM
- TGI [7]: > 100 µM
- TGI [8]: > 29.3 µM
- TGI [9]: 3.31 µM
- TGI [10]: > 100 µM
- TGI [11]: > 27.1 µM
- TGI [12]: > 28 µM
- TGI [13]: > 100 µM
- TGI [14]: > 100 µM
- TGI [15]: 6.26 µM
- TGI [16]: 4.18 µM
- TGI [17]: > 100 µM
- TGI [18]: 4.94 µM
- TGI [19]: 2.3 µM
- TGI [20]: > 100 µM
- TGI [21]: > 100 µM
- TGI [22]: > 28.6 µM
- TGI [23]: > 100 µM
- TGI [24]: 12.5 µM
- TGI [25]: > 100 µM
- TGI [26]: > 28.8 µM
- TGI [27]: 1.55 µM
- TGI [28]: > 100 µM
- TGI [29]: 14.9 µM
- TGI [30]: > 100 µM
- TGI [31]: 3.15 µM
- TGI [32]: > 100 µM
- TGI [33]: > 100 µM
- TGI [34]: 4.38 µM
- TGI [35]: > 100 µM
- TGI [36]: > 24.8 µM
- TGI [37]: > 100 µM
- TGI [38]: 60.9 µM

SMILES: COc1cc(OC)c(/C=N\Nc2nc3ccccc3c(=O)n2-c2ccccc2)c(OC)c1
- TGI [1]: 47.7 µM
- TGI [2]: > 100 µM
- TGI [39]: 64 µM
- TGI [3]: 69.6 µM
- TGI [4]: > 78.5 µM
- TGI [40]: 55 µM
- TGI [6]: 79.3 µM
- TGI [7]: > 100 µM
- TGI [8]: > 73.8 µM
- TGI [9]: > 64 µM
- TGI [41]: 63.7 µM
- TGI [42]: > 86.1 µM
- TGI [10]: > 94.1 µM
- TGI [11]: > 100 µM
- TGI [43]: > 81.4 µM
- TGI [12]: 78.6 µM
- TGI [13]: 64.3 µM
- TGI [14]: 84.6 µM
- TGI [15]: 51.6 µM
- TGI [16]: 39.3 µM
- TGI [17]: > 76.5 µM
- TGI [18]: > 100 µM
- TGI [44]: > 100 µM
- TGI [19]: 77.6 µM
- TGI [20]: > 79.7 µM
- TGI [45]: 65.1 µM
- TGI [46]: 65.5 µM
- TGI [21]: 64.5 µM
- TGI [22]: 41.1 µM
- TGI [23]: > 72.7 µM
- TGI [47]: 77.1 µM
- TGI [48]: > 100 µM
- TGI [24]: 44 µM
- TGI [25]: 87.2 µM
- TGI [26]: > 31.6 µM
- TGI [49]: 55 µM
- TGI [50]: > 100 µM
- TGI [27]: > 77.8 µM
- TGI [28]: 54.3 µM
- TGI [29]: 53.7 µM
- TGI [51]: 50.9 µM
- TGI [52]: 37.6 µM
- TGI [30]: > 100 µM
- TGI [31]: 46.9 µM
- TGI [32]: > 100 µM
- TGI [33]: 43.9 µM
- TGI [53]: 38.8 µM
- TGI [34]: > 100 µM
- TGI [54]: 98.8 µM
- TGI [55]: > 100 µM
- TGI [35]: > 100 µM
- TGI [56]: > 100 µM
- TGI [57]: > 100 µM
- TGI [36]: > 66 µM
- TGI [37]: 40.6 µM
- TGI [38]: 38.3 µM
- TGI [58]: > 100 µM
